Earlier results in patent publication US20080138409A1, “OLANZAPINE PHARMACEUTICAL COMPOSITION” (priority 2006, published 2008).

Conditions: pH 6.8; free base

Structure (SMILES): Cc1cc2c(s1)Nc1ccccc1N=C2N1CCN(C)CC1 [Olanzapine]
- solubility: about 0.02 mg/ml
